Patent publication US6277825A (priority 1999, dated 2001)
Where “and” joins values, the source holds several entries; their conditions need not be identical. Identical values can stand only once.

Key:
CF No. 1 mice = conditions: mouse, in vivo
[1] = test system: young (<2 weeks old) mice; type: in vivo; conditions: mouse, in vivo
[2] = test system: young (<2 weeks old) mice; type: in vivo; conditions: mouse, in vivo; remark: listed apart in the source
[3] = test system: young (<2 weeks old) mice; type: in vivo; conditions: mouse, in vivo; remark: listed apart in the source
NR1-1b/NR2B NMDA subtype = target: T1, NR1-1b/NR2B NMDA subtype (Homo sapiens, UniProt Q05586+Q13224); assay: cell-based
T1 construct: expressed in transfected cells; host or cells: oocytes
T1 sequence (Q13224 27-1484, other chains not shown): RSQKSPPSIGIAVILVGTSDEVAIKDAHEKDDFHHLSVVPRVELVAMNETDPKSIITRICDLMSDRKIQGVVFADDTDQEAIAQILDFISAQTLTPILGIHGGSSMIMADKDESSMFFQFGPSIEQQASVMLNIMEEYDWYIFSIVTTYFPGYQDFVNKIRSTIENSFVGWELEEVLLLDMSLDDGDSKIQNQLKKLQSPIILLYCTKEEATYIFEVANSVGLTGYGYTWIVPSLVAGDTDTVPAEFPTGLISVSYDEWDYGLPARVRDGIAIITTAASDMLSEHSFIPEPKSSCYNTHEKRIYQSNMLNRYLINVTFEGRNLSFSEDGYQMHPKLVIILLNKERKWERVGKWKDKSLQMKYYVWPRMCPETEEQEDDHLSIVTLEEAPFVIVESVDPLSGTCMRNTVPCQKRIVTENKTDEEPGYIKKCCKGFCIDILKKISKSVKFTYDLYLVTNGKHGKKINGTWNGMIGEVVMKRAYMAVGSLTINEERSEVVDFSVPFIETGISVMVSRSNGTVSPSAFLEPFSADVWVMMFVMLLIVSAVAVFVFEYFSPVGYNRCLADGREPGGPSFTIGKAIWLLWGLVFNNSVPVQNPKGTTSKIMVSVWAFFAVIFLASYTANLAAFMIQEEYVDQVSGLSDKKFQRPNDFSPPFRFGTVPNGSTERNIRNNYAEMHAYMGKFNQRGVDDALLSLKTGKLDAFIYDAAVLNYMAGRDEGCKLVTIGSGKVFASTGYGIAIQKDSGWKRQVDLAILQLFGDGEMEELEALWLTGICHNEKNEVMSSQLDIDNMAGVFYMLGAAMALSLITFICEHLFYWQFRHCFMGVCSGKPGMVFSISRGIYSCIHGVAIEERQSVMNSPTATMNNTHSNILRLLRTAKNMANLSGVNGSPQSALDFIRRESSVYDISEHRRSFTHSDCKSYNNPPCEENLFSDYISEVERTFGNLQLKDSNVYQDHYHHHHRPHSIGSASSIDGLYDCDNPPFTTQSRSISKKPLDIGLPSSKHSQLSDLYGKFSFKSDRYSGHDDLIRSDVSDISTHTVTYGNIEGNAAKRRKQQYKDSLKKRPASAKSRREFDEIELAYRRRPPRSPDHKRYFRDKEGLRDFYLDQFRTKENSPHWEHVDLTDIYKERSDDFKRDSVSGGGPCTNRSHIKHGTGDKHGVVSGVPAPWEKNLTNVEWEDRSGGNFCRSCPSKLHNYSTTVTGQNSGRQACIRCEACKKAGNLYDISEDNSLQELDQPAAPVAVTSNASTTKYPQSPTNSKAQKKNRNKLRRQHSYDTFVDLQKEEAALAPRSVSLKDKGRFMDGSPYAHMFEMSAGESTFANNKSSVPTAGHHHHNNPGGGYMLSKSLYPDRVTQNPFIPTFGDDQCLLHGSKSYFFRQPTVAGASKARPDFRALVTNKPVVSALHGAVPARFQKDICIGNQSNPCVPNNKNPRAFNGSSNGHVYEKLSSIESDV

CF #1 Mice = test system: CF #1 Mice; design: TD50: unit not given beside the values; conditions: mouse, in vivo
[4] = test system: Frings audiogenic seizure-susceptible mice; conditions: mouse, in vivo

Compound | anticonvulsant activity (CF No. 1 mice) | Catalepsy Test, positive mice/tested [1] | Sleepy Test, positive mice/tested [2] | Righting Reflex, mice that lost reflex/tested [3] | further results
Conantokin Ca2 [Con Ca2] | anticonvulsant activity |  |  |  | 
Conantokin Oc [Con Oc] |  | 0/3 | 2/3 and 0/3 | 0/3 | 
CC[C@H](C)[C@H](NC(=O)[C@H](CC(N)=O)NC(=O)[C@H](CC(C(=O)O)C(=O)O)NC(=O)[C@H](CCCNC(=N)N)NC(=O)[C@H](C)NC(=O)[C@H](CC(C)C)NC(=O)[C@H](CC(C(=O)O)C(=O)O)NC(=O)[C@H](C)NC(=O)[C@H](C)NC(=O)[C@H](CCSC)NC(=O)[C@H](CCCCN)NC(=O)[C@H](C)NC(=O)[C@@H](NC(=O)[C@H](CC(C(=O)O)C(=O)O)NC(=O)[C@H](CC(C(=O)O)C(=O)O)NC(=O)[C@H](CCC(=O)O)NC(=O)CN)C(C)C)C(=O)N[C@@H](C)C(=O)N[C@@H](CCCCN)C(=O)NCC(=O)N[C@H]1CSSC[C@@H](C(=O)N[C@@H](Cc2ccc(O)cc2)C(=O)N2CCC[C@H]2C(=O)O)NC(=O)[C@H](CC(N)=O)NC(=O)[C@H](C(C)C)NC(=O)[C@H](CCCCN)NC1=O [Con R, Conantokin R] |  |  |  |  | Ki (NR1-1b/NR2B NMDA subtype): 140 nM; inhibition at 3 µM (NR1-1b/NR2B NMDA subtype; read-out: inhibition of the current produced in response to glutamate and glycine): ~95%; P.I. (TD50/ED50) (CF #1 Mice): 3.6; TD50 (CF #1 Mice): ~ 0.300; P.I. (TD50/ED50) [4]: 17; Protective Index, PI (TD50/ED50) [4]: 18; TD50 [4]: 0.228; protective index relative to that of valproic acid [4]: at least eight times better
Conantokin Gm [Con Gm] | anticonvulsant activity |  |  |  | 
Conantokin Qu [Con Qu] | anticonvulsant activity |  |  |  | 
Conantokin L [Con L] | anticonvulsant activity | 4/4 and 3/4 | 4/4 | 2/4 and 3/4 | 
